# Data as given in patent US11331299B2, “Medicinal use of serrulatane diterpenes” (The University of Sydney, priority 2016, dated 2022).
# Read-outs that look alike come from different tables or passages of the source.
# Assays:
# enzymes (Bioprint panel) [1] = biological target: enzymes (Bioprint panel) (Rattus norvegicus, UniProt P21396); assay: biochemical; details: MAO-A (antagonist radioligand); 10 μM; read-out: % Inhibition of Control Values
# enzymes (Bioprint panel) [2] = biological target: enzymes (Bioprint panel) (Homo sapiens, UniProt P56817); assay: biochemical; details: BACE-1 (h) (beta -secretase); 10 μM; read-out: % Inhibition of Control Values
# enzymes (Bioprint panel) [3] = biological target: T1, enzymes (Bioprint panel) (Bos taurus, UniProt P11541+P23439); assay: biochemical; details: PDE6 (non-selective); 10 μM; read-out: % Inhibition of Control Values
# T1 construct: other: PDE6 (non-selective); 10 μM
# enzymes (Bioprint panel) [4] = biological target: enzymes (Bioprint panel) (Homo sapiens, UniProt P24941); assay: biochemical; details: CDK2 (h) (cycA); 10 μM; read-out: % Inhibition of Control Values
# enzymes (Bioprint panel) [5] = biological target: enzymes (Bioprint panel) (Homo sapiens, UniProt Q13370); assay: biochemical; details: PDE3B (h); 10 μM; read-out: % Inhibition of Control Values
# enzymes (Bioprint panel) [6] = biological target: enzymes (Bioprint panel) (Bos taurus, UniProt P80457); assay: biochemical; details: xanthine oxidase/superoxide O2- scavenging; 10 μM; read-out: % Inhibition of Control Values
# enzymes (Bioprint panel) [7] = biological target: enzymes (Bioprint panel) (Homo sapiens, UniProt P07948); assay: biochemical; details: Lyn A kinase (h); 10 μM; read-out: % Inhibition of Control Values
# enzymes (Bioprint panel) [8] = biological target: enzymes (Bioprint panel) (Homo sapiens, UniProt O76074); assay: biochemical; details: PDE5 (h) (non-selective); 10 μM; read-out: % Inhibition of Control Values
# enzymes (Bioprint panel) [9] = biological target: enzymes (Bioprint panel) (Homo sapiens, UniProt P08253); assay: biochemical; details: MMP-2 (h); 10 μM; read-out: % Inhibition of Control Values
# enzymes (Bioprint panel) [10] = biological target: enzymes (Bioprint panel) (Homo sapiens, UniProt Q9UQM7); assay: biochemical; details: CaMK2alpha (h); 10 μM; read-out: % Inhibition of Control Values
# enzymes (Bioprint panel) (Homo sapiens, UniProt Q9UQM7), sequence (Q9UQM7 whole entry): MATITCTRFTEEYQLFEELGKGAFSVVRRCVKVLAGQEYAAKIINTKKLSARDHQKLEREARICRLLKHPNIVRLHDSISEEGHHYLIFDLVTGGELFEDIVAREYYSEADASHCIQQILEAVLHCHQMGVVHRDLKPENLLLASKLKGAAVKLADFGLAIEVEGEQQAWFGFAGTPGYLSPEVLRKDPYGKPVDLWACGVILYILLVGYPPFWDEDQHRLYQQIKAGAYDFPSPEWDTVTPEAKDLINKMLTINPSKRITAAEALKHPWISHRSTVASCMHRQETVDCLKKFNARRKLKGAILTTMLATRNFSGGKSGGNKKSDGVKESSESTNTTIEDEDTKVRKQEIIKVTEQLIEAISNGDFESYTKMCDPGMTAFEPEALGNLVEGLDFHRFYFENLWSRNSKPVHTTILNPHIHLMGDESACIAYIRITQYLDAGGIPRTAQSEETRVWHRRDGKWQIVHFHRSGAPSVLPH
# enzymes (Bioprint panel) [11] = biological target: T2, enzymes (Bioprint panel) (UniProt P04585); assay: biochemical; details: HIV-1 protease; 10 μM
# T2 construct: other: HIV-1 protease; 10 μM
# enzymes (Bioprint panel) [12] = biological target: enzymes (Bioprint panel) (Homo sapiens, UniProt P00519); assay: biochemical; details: Abl kinase (h); 10 μM; read-out: % Inhibition of Control Values
# enzymes (Bioprint panel) [13] = biological target: enzymes (Bioprint panel) (Homo sapiens, UniProt P06241); assay: biochemical; details: Fyn kinase (h); 10 μM; read-out: % Inhibition of Control Values
# enzymes (Bioprint panel) (Homo sapiens, UniProt P06241), sequence (P06241 whole entry): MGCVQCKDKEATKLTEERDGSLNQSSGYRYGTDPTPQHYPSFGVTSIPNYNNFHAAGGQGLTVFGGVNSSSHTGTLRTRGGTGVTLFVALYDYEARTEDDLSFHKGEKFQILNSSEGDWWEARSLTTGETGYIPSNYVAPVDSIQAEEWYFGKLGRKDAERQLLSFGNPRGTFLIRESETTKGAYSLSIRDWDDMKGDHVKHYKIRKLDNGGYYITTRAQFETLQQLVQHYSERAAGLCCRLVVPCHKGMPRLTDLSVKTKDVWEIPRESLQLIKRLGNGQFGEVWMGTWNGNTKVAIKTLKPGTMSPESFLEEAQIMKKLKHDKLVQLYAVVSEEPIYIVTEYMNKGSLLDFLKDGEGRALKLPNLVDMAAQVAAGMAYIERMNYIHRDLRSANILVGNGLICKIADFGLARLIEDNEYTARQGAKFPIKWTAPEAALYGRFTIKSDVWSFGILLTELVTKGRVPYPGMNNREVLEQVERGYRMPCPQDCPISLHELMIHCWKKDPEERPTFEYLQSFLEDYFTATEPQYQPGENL
# enzymes (Bioprint panel) [14] = biological target: enzymes (Bioprint panel) (Homo sapiens, UniProt Q9BYF1); assay: biochemical; details: ACE-2 (h); 10 μM; read-out: % Inhibition of Control Values
# enzymes (Bioprint panel) [15] = biological target: enzymes (Bioprint panel) (Homo sapiens, UniProt P14780); assay: biochemical; details: MMP-9 (h); 10 μM; read-out: % Inhibition of Control Values
# enzymes (Bioprint panel) [16] = biological target: T3, enzymes (Bioprint panel) (Homo sapiens, UniProt Q08499); assay: biochemical; details: PDE4D2 (h); 10 μM; read-out: % Inhibition of Control Values
# T3 construct: other: PDE4D2 (h); 10 μM; PDE4D2 (h)
# enzymes (Bioprint panel) [17] = biological target: enzymes (Bioprint panel) (Homo sapiens, UniProt P06213); assay: biochemical; details: IRK (h) (InsR); 10 μM; read-out: % Inhibition of Control Values
# enzymes (Bioprint panel) [18] = biological target: T4, enzymes (Bioprint panel) (UniProt A0ABM2YAB8); assay: biochemical; details: MT3 (ML2) (agonist radioligand); 10 μM
# T4 construct: other: MT3 (ML2) (agonist radioligand); 10 μM
# T4 sequence (A0ABM2YAB8 entry or part of it): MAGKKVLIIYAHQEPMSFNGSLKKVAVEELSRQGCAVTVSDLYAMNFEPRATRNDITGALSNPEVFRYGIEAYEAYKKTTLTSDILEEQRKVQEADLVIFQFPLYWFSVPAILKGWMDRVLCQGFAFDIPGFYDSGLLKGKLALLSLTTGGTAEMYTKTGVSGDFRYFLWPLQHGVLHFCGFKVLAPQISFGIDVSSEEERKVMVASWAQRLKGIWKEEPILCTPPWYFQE
# enzymes (Bioprint panel) [19] = system: T5, enzymes (Bioprint panel); assay: biochemical; details: ATPase (Na+/K+); 10 μM
# T5 construct: other: ATPase (Na+/K+); 10 μM
# [20] = system: primary human keratinocytes; assay: Keratinocyte cell viability, IL-8 assay (assay number 1244); format: cell-based; details: Homo sapiens, Keratinocyte; read-out: Inhibition of cell viability, Rel EC50
# [21] = as above; format: cell-based, human; details: human, primary human keratinocytes induced with IL-17A and TNFα; read-out: Inhibition of cell viability, Max Effect
# COX2 (h) = COX2 (h) (Homo sapiens, UniProt P35354); assay: Bioprint enzyme assay; format: biochemical
# COX2 (h), sequence (P35354 18-604): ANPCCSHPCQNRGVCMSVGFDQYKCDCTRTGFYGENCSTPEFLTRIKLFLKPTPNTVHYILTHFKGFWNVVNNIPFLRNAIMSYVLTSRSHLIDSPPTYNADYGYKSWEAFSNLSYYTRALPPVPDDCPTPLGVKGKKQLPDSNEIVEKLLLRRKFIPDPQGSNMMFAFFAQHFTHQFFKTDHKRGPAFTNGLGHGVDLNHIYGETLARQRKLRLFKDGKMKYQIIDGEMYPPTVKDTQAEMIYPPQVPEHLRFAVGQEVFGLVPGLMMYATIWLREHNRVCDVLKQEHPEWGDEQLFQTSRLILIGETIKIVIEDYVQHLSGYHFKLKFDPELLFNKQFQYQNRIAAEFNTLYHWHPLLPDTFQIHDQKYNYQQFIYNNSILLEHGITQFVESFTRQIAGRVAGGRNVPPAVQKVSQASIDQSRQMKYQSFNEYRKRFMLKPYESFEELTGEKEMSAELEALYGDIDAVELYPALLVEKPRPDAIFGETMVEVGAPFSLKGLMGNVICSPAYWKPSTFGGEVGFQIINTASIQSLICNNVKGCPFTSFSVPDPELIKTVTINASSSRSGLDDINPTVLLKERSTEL
# COX1 (h) = COX1 (h) (Homo sapiens, UniProt P23219); assay: Bioprint enzyme assay; format: biochemical
# COX1 (h), sequence (P23219 24-599): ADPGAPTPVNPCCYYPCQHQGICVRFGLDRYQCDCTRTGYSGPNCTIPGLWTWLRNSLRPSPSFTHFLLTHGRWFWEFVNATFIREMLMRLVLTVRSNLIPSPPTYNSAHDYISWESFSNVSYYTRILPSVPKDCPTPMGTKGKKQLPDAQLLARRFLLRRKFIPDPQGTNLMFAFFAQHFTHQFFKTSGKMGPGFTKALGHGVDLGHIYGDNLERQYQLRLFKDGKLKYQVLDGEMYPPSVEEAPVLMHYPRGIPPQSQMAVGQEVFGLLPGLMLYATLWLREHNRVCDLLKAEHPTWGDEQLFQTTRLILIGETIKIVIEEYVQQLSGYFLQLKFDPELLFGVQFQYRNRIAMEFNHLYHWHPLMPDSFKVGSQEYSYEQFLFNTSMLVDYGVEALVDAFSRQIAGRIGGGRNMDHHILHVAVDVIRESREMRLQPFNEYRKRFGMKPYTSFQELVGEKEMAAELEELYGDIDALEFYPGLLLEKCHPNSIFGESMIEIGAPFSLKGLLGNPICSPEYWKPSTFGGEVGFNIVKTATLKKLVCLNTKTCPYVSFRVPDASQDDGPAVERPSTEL
# MLL3(h) complex = MLL3(h) complex (Homo sapiens, UniProt Q8NEZ4); details: read-out: Reference: (IC50 not given); cited from earlier work
# SUV39H2 (h) = SUV39H2 (h) (Homo sapiens, UniProt Q9H5I1); details: read-out: Reference: (IC50 not given); cited from earlier work
# NSD1 (h) = NSD1 (h) (Homo sapiens, UniProt Q96L73); details: read-out: Reference: (IC50 not given); cited from earlier work
# NSD1 (h), sequence (Q96L73 whole entry): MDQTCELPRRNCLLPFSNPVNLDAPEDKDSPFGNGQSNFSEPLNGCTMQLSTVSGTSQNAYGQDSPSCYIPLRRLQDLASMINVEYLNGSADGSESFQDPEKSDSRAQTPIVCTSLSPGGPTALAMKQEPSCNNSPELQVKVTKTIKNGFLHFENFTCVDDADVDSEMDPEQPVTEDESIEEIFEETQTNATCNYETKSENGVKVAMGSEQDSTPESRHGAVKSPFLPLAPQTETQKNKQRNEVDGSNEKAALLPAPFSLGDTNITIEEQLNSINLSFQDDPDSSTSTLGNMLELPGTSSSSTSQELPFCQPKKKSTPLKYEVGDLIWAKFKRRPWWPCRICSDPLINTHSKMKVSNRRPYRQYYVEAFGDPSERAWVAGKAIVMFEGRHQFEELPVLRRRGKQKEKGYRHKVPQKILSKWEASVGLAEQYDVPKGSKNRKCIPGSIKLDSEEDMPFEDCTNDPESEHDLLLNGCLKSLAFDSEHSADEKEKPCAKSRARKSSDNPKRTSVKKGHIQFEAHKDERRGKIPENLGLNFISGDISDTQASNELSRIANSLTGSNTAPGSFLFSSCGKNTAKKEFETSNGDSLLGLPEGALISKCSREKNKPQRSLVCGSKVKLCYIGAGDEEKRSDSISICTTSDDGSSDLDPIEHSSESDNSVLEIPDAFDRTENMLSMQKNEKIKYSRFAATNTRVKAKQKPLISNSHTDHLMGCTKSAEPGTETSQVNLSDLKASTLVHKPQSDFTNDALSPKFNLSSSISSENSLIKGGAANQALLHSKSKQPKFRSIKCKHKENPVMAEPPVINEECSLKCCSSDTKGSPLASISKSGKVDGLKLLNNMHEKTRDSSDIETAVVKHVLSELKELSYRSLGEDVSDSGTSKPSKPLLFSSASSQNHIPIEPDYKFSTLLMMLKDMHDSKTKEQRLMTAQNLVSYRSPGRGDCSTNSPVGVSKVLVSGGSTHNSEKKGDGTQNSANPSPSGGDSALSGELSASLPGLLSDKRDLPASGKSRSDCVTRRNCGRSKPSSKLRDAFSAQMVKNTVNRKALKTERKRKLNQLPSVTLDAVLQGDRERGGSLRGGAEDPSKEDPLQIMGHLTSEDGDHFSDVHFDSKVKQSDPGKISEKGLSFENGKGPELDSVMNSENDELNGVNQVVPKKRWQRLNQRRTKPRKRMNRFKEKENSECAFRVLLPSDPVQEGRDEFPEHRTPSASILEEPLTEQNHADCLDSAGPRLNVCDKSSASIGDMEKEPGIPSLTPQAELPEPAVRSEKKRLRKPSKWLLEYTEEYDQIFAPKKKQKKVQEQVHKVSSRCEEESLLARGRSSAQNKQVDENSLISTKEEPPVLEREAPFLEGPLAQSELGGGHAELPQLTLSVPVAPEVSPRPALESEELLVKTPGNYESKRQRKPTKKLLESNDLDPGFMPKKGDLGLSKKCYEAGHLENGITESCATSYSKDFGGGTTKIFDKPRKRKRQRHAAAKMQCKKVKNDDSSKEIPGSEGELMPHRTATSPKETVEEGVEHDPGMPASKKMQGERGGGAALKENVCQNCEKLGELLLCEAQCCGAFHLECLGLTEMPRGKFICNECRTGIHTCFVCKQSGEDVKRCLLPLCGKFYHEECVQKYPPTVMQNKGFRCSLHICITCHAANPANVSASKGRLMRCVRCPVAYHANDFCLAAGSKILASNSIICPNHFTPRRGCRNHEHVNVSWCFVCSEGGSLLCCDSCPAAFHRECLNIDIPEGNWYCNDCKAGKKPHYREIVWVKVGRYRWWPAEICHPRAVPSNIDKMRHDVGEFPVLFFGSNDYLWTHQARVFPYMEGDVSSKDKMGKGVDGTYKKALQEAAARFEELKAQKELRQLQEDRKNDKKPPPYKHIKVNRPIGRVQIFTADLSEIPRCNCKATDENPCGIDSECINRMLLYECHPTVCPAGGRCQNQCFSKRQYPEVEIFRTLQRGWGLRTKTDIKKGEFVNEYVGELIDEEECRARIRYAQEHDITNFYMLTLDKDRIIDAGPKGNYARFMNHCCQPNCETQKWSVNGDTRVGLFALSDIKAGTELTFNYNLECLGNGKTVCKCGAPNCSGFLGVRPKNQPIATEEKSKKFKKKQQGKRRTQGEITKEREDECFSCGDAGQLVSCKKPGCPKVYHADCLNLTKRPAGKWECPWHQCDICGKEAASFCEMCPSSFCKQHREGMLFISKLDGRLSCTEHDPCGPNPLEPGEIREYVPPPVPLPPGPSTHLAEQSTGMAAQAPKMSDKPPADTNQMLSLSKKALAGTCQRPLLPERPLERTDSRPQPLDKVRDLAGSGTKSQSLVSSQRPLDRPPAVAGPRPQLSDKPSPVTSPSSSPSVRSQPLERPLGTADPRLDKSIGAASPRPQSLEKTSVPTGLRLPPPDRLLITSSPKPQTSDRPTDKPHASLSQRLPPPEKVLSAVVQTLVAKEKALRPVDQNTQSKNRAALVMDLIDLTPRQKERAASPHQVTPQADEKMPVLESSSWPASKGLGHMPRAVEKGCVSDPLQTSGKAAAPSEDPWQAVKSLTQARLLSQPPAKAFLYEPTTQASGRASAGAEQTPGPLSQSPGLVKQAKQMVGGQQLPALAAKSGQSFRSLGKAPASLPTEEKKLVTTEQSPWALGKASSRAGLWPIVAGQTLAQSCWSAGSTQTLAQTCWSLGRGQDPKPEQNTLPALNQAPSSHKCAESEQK
# [22] = read-out: % inhibition of control enzyme activity
compound,measurement,setting,value
"CC(C)=CCC[C@H](CO)[C@@H]1CC[C@@H](C)c2c1cc(C)c(O)c2O [Compound 1, 7,8,18-trihydroxyserrulat-14-ene]",inhibition at 10 µM,enzymes (Bioprint panel) [1],15%
same,inhibition at 10 µM,enzymes (Bioprint panel) [2],0%
same,inhibition at 10 µM,enzymes (Bioprint panel) [3],4%
same,inhibition at 10 µM,enzymes (Bioprint panel) [4],12%
same,inhibition at 10 µM,enzymes (Bioprint panel) [5],-3%
same,inhibition at 10 µM,enzymes (Bioprint panel) [6],-140%
same,inhibition at 10 µM,enzymes (Bioprint panel) [7],9%
same,inhibition at 10 µM,enzymes (Bioprint panel) [8],11%
same,inhibition at 10 µM,enzymes (Bioprint panel) [9],0%
same,inhibition at 10 µM,enzymes (Bioprint panel) [10],2%
same,% Inhibition of Control Values,enzymes (Bioprint panel) [11],9%
same,inhibition at 10 µM,enzymes (Bioprint panel) [12],14%
same,inhibition at 10 µM,enzymes (Bioprint panel) [13],6%
same,inhibition at 10 µM,enzymes (Bioprint panel) [14],-3%
same,inhibition at 10 µM,enzymes (Bioprint panel) [15],1%
same,inhibition at 10 µM,enzymes (Bioprint panel) [16],55%
same,inhibition at 10 µM,enzymes (Bioprint panel) [17],-15%
same,% Inhibition of Control Values,enzymes (Bioprint panel) [18],31%
same,% Inhibition of Control Values,enzymes (Bioprint panel) [19],22%
same,EC50,[20],246 nM
same,cytotoxicity,[21],101%
same,inhibition at 10 µM,"COX2 (h); COX2(h), read-out: % Inhibition of Control Values",74%
same,inhibition at 10 µM,COX2 (h); [22],74%
same,inhibition at 10 µM,"COX1 (h); COX1(h), read-out: % Inhibition of Control Values",81%
same,inhibition at 10 µM,COX1 (h); [22],81%
Nc1ncnc2c1ncn2[C@@H]1O[C@H](CSCC[C@H](N)C(=O)O)[C@@H](O)[C@H]1O [SAH],IC50,MLL3(h) complex,970 nM
same,IC50,SUV39H2 (h),24000 nM
same,IC50,NSD1 (h),970 nM
